# Reference: PubChem BioAssay AID1645868 (Buhrlage Lab, Dana-Farber Cancer Institute and Novartis …, 2021)
# Active and inactive are the calls of the source.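 The calls were made as follows: active = maximal percent inhibition of the deubiquitinase OTUD3 of at least 30% across the tested doses; inactive = the rest.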
# Target: OTU domain-containing protein 3 (Homo sapiens) (UniProt Q5T2D3)
# Test: Validation of screening hits, potency titration, in vitro enzymatic, OTU domain-containing protein 3 DUB inhibitors (AID 1645868)
# Details: purified OTUD3, ubiquitin-rhodamine cleavage fluorescence, 2 h
# Sequence of OTU domain-containing protein 3 (Homo sapiens) (Q5T2D3 whole entry, looked up, the tested form may be a part): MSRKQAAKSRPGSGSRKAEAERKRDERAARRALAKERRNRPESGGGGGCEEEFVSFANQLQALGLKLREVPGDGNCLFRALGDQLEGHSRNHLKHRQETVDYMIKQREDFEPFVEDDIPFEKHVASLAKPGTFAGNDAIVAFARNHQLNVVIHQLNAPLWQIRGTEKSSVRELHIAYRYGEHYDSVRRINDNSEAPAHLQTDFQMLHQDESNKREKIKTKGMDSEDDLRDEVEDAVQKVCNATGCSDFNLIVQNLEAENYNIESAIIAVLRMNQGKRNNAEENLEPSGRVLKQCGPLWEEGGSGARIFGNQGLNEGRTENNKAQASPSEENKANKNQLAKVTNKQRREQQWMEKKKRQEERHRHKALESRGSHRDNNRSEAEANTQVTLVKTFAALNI
row,SMILES,IC50
1,CC12c3ccc4c(c3C(=O)c3occ(c31)C(=O)CC2O)CCC4=O (stereo unspecified),> 50 µM (inactive)
2,CCCCCCCCCC(CCCCCCCCCC(=O)O)O[C@H]1O[C@@H](COC(C)=O)[C@H](O)[C@@H](O)[C@H]1OC(=O)CC(=O)O (stereo partly specified),22.5 µM
3,O=C(CSc1ncnc2c1sc1cccc(F)c12)N1CCCCCC1,> 50 µM (inactive)
4,CSc1cccc(NC(=O)CNC(=O)c2cc3ccccc3o2)c1,> 50 µM (inactive)
5,Cc1cc(C(=O)COC(=O)c2ccc[nH]c2=O)c(C)n1-c1ccc2c(c1)OCO2,> 50 µM (inactive)
6,COC(=O)c1ccc(Cn2cnc3ccc(Br)cc3c2=O)o1,> 50 µM (inactive)
7,O=C(NCc1ccc2c(c1)OCO2)c1ccc(C2SCC(=O)N2Cc2ccco2)cc1 (stereo unspecified),> 50 µM (inactive)
8,O=C(CSc1ccc(-c2cccc([N+](=O)[O-])c2)nn1)Nc1cccc(F)c1,25.2 µM
9,CCN1C(SCc2ccccc2F)=NS(=O)(=O)c2ccccc21,> 50 µM (inactive)
10,CCc1ccc2[nH]c3c(c(=O)c2c1)CN(CC(=O)NCc1ccc2c(c1)OCO2)CC3,28.6 µM
11,Cc1ccc(C(=O)c2cn(CC(=O)Nc3ccccc3)c3ccc(C)cc3c2=O)cc1,21.1 µM
12,CSc1nc(Cc2ccc(Cl)cc2)nc2ccccc12,> 50 µM (inactive)
13,O=C(Cn1c(=O)n(CCC(=O)N2CC=C(c3ccccc3)CC2)c(=O)c2ccccc21)NCc1ccco1,> 50 µM (inactive)
14,COc1ccc(CNC(=O)c2ccccc2N2C(=O)N3CCc4c([nH]c5ccccc45)[C@@]3(C)C2=O)cc1,42.1 µM
15,CC(C)(C)C(=O)Nc1ccc(SCc2nnc(-c3ccccc3)o2)cc1,> 50 µM (inactive)
16,Cn1cc(-c2cnc(-c3cccc(F)c3)nc2)cc1C(=O)NCc1cccnc1,> 50 µM (inactive)
17,COc1cc(O)c2c(c1)C1=CC(=O)C(O)=C[C@]1(C)OC2=O,29.9 µM
18,O=C(Nc1cccc(S(=O)(=O)N2CCCC2)c1)c1ccc2c(=O)n3c(nc2c1)CCCCC3,> 50 µM (inactive)
19,Cc1cc(/C=C2/C(=N)N3C(c4ccccc4)=CSC3=NC2=O)c(C)n1-c1ccc(F)cc1,> 50 µM (inactive)
20,Cc1cccc(C(=O)N2CCc3cc(-c4nc(NC(=O)CNc5ccccc5)sc4C)ccc32)c1,> 50 µM (inactive)
21,CC(C)NS(=O)(=O)c1cccc2c(NC(=O)C(Cc3ccccc3)NC(=O)c3ccccc3)cccc12 (stereo unspecified),> 50 µM (inactive)
22,Cc1ccc(NC(=O)c2cc(=O)n(C)c3c2c(=O)n(C)c(=O)n3C)c(C)c1,> 50 µM (inactive)
23,COC(=O)C1C(c2ccc(OC)cc2)C2(C(=O)c3ccccc3C2=O)C2C=Cc3ccccc3N12 (stereo unspecified),> 50 µM (inactive)

row,SMILES,IC50
1,COc1cccc(C(=O)Nc2ccc(-n3cnnn3)cc2)c1,> 50 µM (inactive)
2,Cc1ccc2nc(CNc3ccc(F)cc3C)cc(=O)n2c1,> 50 µM (inactive)
3,O=C(Nc1ccc2c(c1)OCCO2)c1ccc(N2CCCCC2)nn1,> 50 µM (inactive)
4,CC(C)Cn1cc(OC(=O)c2ccc(F)cc2)c2c1nc(-c1ccc(F)cc1)n1c3ccccc3nc21,> 50 µM (inactive)
5,O=C(Nc1cc(Cl)ccc1-n1cncn1)c1ccc(S(=O)(=O)N2CCCC2)cc1,> 50 µM (inactive)
6,COc1cc(O)c2c(O)c3c(cc2c1)CC(C)OC3=O (stereo unspecified),> 50 µM (inactive)
7,CC1=C(C)C(c2c(-c3ccc(C)cc3)[nH]c3ccccc23)N(C(C)(C)C)C1=O (stereo unspecified),8.84 µM
8,Cc1sc(NC(=O)CNc2ccccc2)nc1-c1ccc2c(c1)CCN2C(=O)C(C)C,> 50 µM (inactive)
9,Oc1cc(OCc2cccc(C(F)(F)F)c2)ccc1-c1ccn[nH]1,45 µM
10,O=C(c1nnn(Cc2ccc(Cl)cc2)c1-n1cccc1)N1CCCC1,> 50 µM (inactive)
11,O=S1(=O)CCN(Cc2ccccc2)c2c(F)nc(N3CCCCC3)c(F)c21,> 50 µM (inactive)
12,O=C(CCc1nnc2n(Cc3ccccc3Cl)c(=O)c3ccccc3n12)NCc1ccccn1,> 50 µM (inactive)
13,O=C(Cn1c(=O)n(Cc2ccc3c(c2)OCO3)c(=O)c2ncccc21)c1ccc(Cl)cc1,33.9 µM
14,CCOc1ccc2nc(NC(=O)C3CCN(S(=O)(=O)c4ccc5c(c4)CC(C)N5C(C)=O)CC3)sc2c1 (stereo unspecified),> 50 µM (inactive)
15,CC(OC(=O)c1ccc2c(c1)OCCO2)C(=O)NCC1CCCCC1 (stereo unspecified),34.2 µM
16,O=c1ccc(-c2noc(-c3ccc4cc[nH]c4c3)n2)c[nH]1,> 50 µM (inactive)
17,O=C(COC(=O)c1ccc2ncsc2c1)Nc1ccccc1F,> 50 µM (inactive)
18,CCOc1ccc(NC(=O)Cn2c(=O)n(CCCCCC(=O)NCc3ccc(F)cc3)c(=O)c3sccc32)cc1,2.67 µM
19,Cc1cc(C2CC(=O)Nc3c2c(C)nn3-c2nc3ccccc3[nH]2)c(C)s1 (stereo unspecified),> 50 µM (inactive)
20,COc1ccc(NC(=O)CSc2nnc(Cc3cccc4ccccc34)n2C)cc1,> 50 µM (inactive)
21,COc1cc(Cl)ccc1Nc1ncc(C(=O)Nc2cc(OC)c(OC)c(OC)c2)c2ccccc12,0.121 µM
22,O=c1oc2ccccc2c2nn(-c3ccccn3)cc12,> 50 µM (inactive)
23,O=C(NCc1ccccc1Cl)C1CCCN(c2nc3ccsc3c(=O)s2)C1 (stereo unspecified),> 50 µM (inactive)

row,SMILES,IC50
1,COc1ccc(CCn2cnc3c4ccccc4n(C)c3c2=O)cc1OC,> 50 µM (inactive)
2,CC(=O)c1ccc(NC(=O)/C(=C/c2ccco2)n2nnnc2-c2ccccc2)cc1,> 50 µM (inactive)
3,Cc1cc(C)c2nc3c(cc2c1)CN(Cc1ccco1)C(=O)O3,> 50 µM (inactive)
4,COc1cccc(-c2nc(C(N)=O)c3[nH]c(=O)n(-c4cccc(Cl)c4)c3n2)c1OC,> 50 µM (inactive)
5,O=C(COc1nc2ccccc2nc1N1CCOCC1)NC(c1ccccc1)c1ccccc1,> 50 µM (inactive)
6,O=C(NCc1ccccc1)Nc1cccc2ccccc12,40.3 µM
7,O=c1c2ccccc2ncn1C1CCN(S(=O)(=O)c2ccccc2F)CC1,> 50 µM (inactive)
8,CC1=C[C@@H](C)CC[C@H]2O[C@@H](C3=C(O)C(=O)C(C)=C4O[C@](O)(C=C43)[C@@H](C)C[C@H](C)C1)[C@H](C)[C@@H](O)[C@H]2C,20 µM
9,CCc1c(Cl)c(O)c(Cl)c(O)c1C(=O)O[C@H]1C(C)O[C@@H](OC/C2=C\C=C\CC(O)/C(C)=C/C(CC)C(O[C@@H]3OC(C)(C)[C@H](O)C(OC(=O)C(C)C)[C@@H]3O)/C(C)=C/C(C)=C/CC(C(C)O)OC2=O)[C@@H](OC)C1O (stereo partly specified),> 50 µM (inactive)
10,O=C(c1cscn1)N1CCC2(CC1)CC1(CO2)Nc2ccccc2-n2cccc21 (stereo unspecified),> 50 µM (inactive)
11,CCn1c(=O)c2ccccc2n(Cc2nc(-c3ccccc3OC)no2)c1=O,> 50 µM (inactive)
12,CC(C)(C)C(=O)Nc1ccc(C(=O)Nc2cccc(-c3nnc(-c4ccccc4)o3)c2)cc1,16.8 µM
13,C=C1CCC2[C@](C)(CCC[C@]2(C)C(=O)OC)[C@H]1CCc1ccoc1CNC(C)C (stereo partly specified),> 50 µM (inactive)
14,O=S(=O)(Cc1nnc(-c2ccccc2C(F)(F)F)o1)c1ccc(Cl)cc1,> 50 µM (inactive)
15,COc1ccc(-c2cnnn2-c2ccc(NC(=O)c3c(F)cccc3F)cc2)cc1OC,> 50 µM (inactive)
16,Cc1ccc(NC2=NC(c3ccco3)n3c(nc(C)cc3=O)N2)c(C)c1 (stereo unspecified),> 50 µM (inactive)
17,Cc1cccc(NC(=O)Nc2nnc(CC(=O)NCc3ccccc3)s2)c1,23.9 µM
18,FC(F)(F)c1cccc(CSc2ccc3nnc(-c4ccccn4)n3n2)c1,> 50 µM (inactive)
19,O=C(NCC(c1cccnc1)N1CCc2ccccc2C1)C(=O)Nc1ccc2c(c1)OCO2 (stereo unspecified),37.7 µM
20,O=C(NC(Cc1ccccc1)c1nc2ccccc2[nH]1)c1ccccn1 (stereo unspecified),> 50 µM (inactive)
21,COc1ccc2nc3c(cc2c1)c(=O)n(C)c1c3c(=O)n(-c2ccccc2)c(=O)n1-c1ccccc1,> 50 µM (inactive)
22,O=C(Nc1ccccc1)c1nc(-c2cn(Cc3ccc(F)cc3)nn2)no1,> 50 µM (inactive)
23,CCCN1CCN(C(=O)c2cc(NC(=O)C3CCC3)cc3nc(C)ccc23)CC1,> 50 µM (inactive)

row,SMILES,IC50
1,COc1ccc(NC(=O)C2C3C=CC4(O3)C2C(=O)N(CCc2ccccc2)C4C(=O)NC2CCCCC2)cc1 (stereo unspecified),26.6 µM
2,O=C(NCCc1ccccc1)c1nnn(Cc2cccc(Cl)c2)c1-n1cccc1,> 50 µM (inactive)
3,Cc1ccc(S(=O)(=O)N2CCC3(CC2)NC(=O)c2ccccc2N3)cc1C,> 50 µM (inactive)
4,COc1ccc(-c2nc(SCC(=O)Nc3ccc(Cl)cc3F)n[nH]2)cc1,> 50 µM (inactive)
5,CC(=O)N1CCOc2cc(S(=O)(=O)N3CCCC3c3cc(C)no3)ccc21 (stereo unspecified),> 50 µM (inactive)
6,Cc1cc(C)c(NC(=O)Cn2c(=O)n(CCC(=O)NCc3ccc4c(c3)OCO4)c(=O)c3sccc32)c(C)c1,12.6 µM
7,Cc1c(S(=O)(=O)NC2CCCCNC2=O)sc2ccc(Cl)cc12 (stereo unspecified),> 50 µM (inactive)
8,O=C(COc1nc2ccccc2nc1N1CCOCC1)Nc1cccc(S(=O)(=O)N2CCCCC2)c1,> 50 µM (inactive)
9,CCOc1ccc2[nH]c(=O)c(CN(C(=O)c3cccs3)C3CCCC3)cc2c1,29.2 µM
10,Cc1ccc(C(=O)Nc2cc3c4c(c2)CC(=O)N4CCC3)cc1,> 50 µM (inactive)
11,COc1ccc(NC(=O)c2ccnc(Nc3ccc(OC)cc3)c2)cc1,> 50 µM (inactive)
12,O=C(NCc1ccc2c(c1)OCO2)c1nc(-c2ccccc2)n(-c2ccccc2)n1,> 50 µM (inactive)
13,CCC(C)c1ccc(-c2csc(Cn3c(CN4CCN(C)CC4)nc4ccccc4c3=O)n2)cc1 (stereo unspecified),31.8 µM
14,COc1ccc(-c2cc(-c3ccccc3)nc(SCC(N)=O)c2C#N)cc1OC,10.5 µM
15,COCCCn1c(C(=O)NCCc2ccccc2)cc2c(=O)n3cccc(C)c3nc21,> 50 µM (inactive)
16,c1cnc(-c2n[nH]c(C3CCN(C4CCNC4)CC3)n2)cn1 (stereo unspecified),> 50 µM (inactive)
17,O=C(Cn1c(=O)nc(-c2ccccc2)c2ccccc21)NCc1ccc2c(c1)OCO2,22.3 µM
18,Fc1cccc(-n2cc(-c3noc(-c4ccccn4)n3)nn2)c1,27 µM
19,CN1CCN(C(=O)c2cc(-c3ccn(CC4CC4)n3)n3ccccc23)CC1,> 50 µM (inactive)
20,O=C(Cc1ccccc1F)N1CCC2(CC1)CC1(CO2)Nc2ccccc2-n2cccc21 (stereo unspecified),> 50 µM (inactive)
21,O=C(O)c1ccccc1C(=O)Nc1ccc(SC(C(=O)Nc2cccc(Cl)c2)c2ccccc2)cc1 (stereo unspecified),33.6 µM
22,O=C(O)c1ccc(C2Cc3c([nH]c(=O)[nH]c3=O)O2)cc1 (stereo unspecified),26.5 µM
